According to the NIST ThermoML archive (doi:10.1016/j.fluid.2009.12.002):
± gives the expanded uncertainty stated by the source.

Tests used:
[1] = xn = mol fraction of the nth substance listed; details: Liquid, Vibrating tube method
[2] = for mass density: Vibrating tube method; for vapor or sublimation pressure: isothermal bubble-point pressure

Structure (SMILES) | mass density ([1]; 333.15 K, x2 = 0) [kg/m3] | mass density ([1]; 343.15 K, x2 = 0) [kg/m3] | mass density ([1]; 353.15 K, x2 = 0) [kg/m3] | mass density ([1]; 333.15 K, x1 = 1) [kg/m3] | mass density ([1]; 343.15 K, x1 = 1) [kg/m3] | mass density ([1]; 353.15 K, x1 = 1) [kg/m3] | mass density ([2]; 333.15 K, Gas) [kg/m3] | mass density ([2]; 333.15 K, Liquid) [kg/m3] | vapor or sublimation pressure ([2]; 333.15 K, Liquid) [kPa] | mass density ([2]; 343.15 K, Gas) [kg/m3] | mass density ([2]; 343.15 K, Liquid) [kg/m3] | vapor or sublimation pressure ([2]; 343.15 K, Liquid) [kPa] | mass density ([2]; 353.15 K, Gas) [kg/m3] | mass density ([2]; 353.15 K, Liquid) [kg/m3] | vapor or sublimation pressure ([2]; 353.15 K, Liquid) [kPa]
CNC=O [N-methylformamide] + Cc1ccccc1C | 967.461 ± 0.23 | 958.765 ± 0.23 | 949.98 ± 0.23 |  |  |  |  |  |  |  |  |  |  |  | 
Cc1ccccc1C [1,2-dimethylbenzene] + CNC=O |  |  |  | 845.839 ± 0.23 | 837.399 ± 0.23 | 828.528 ± 0.24 |  |  |  |  |  |  |  |  | 
Cc1cccc(C)c1 [1,3-dimethylbenzene] |  |  |  |  |  |  | 0.2519 ± 0.1 | 829.305 ± 0.24 | 6.58 ± 0.03 | 0.3779 ± 0.1 | 820.443 ± 0.24 | 10.17 ± 0.03 | 0.5457 ± 0.1 | 811.602 ± 0.24 | 15.12 ± 0.04
Cc1ccc(C)cc1 [1,4-dimethylbenzene] |  |  |  |  |  |  | 0.262 ± 0.1 | 825.539 ± 0.24 | 6.85 ± 0.03 | 0.3903 ± 0.1 | 816.664 ± 0.24 | 10.5 ± 0.03 | 0.5636 ± 0.1 | 807.649 ± 0.24 | 15.61 ± 0.04
CNC=O [N-methylformamide] |  |  |  |  |  |  |  | 967.461 ± 0.23 | 0.37 ± 0.02 |  | 958.765 ± 0.23 | 0.67 ± 0.02 |  | 949.98 ± 0.23 | 1.15 ± 0.02
Cc1cccc(C)c1 [1,3-dimethylbenzene] + CNC=O |  |  |  | 829.305 ± 0.24 | 820.443 ± 0.24 | 811.602 ± 0.24 |  |  |  |  |  |  |  |  | 
CNC=O [N-methylformamide] + Cc1cccc(C)c1 | 967.461 ± 0.23 | 958.765 ± 0.23 | 949.98 ± 0.23 |  |  |  |  |  |  |  |  |  |  |  | 
Cc1ccc(C)cc1 [1,4-dimethylbenzene] + CNC=O |  |  |  | 825.539 ± 0.24 | 816.664 ± 0.24 | 807.649 ± 0.24 |  |  |  |  |  |  |  |  | 
CNC=O [N-methylformamide] + Cc1ccc(C)cc1 | 967.461 ± 0.23 | 958.765 ± 0.23 | 949.98 ± 0.23 |  |  |  |  |  |  |  |  |  |  |  | 
Cc1ccccc1C [1,2-dimethylbenzene] |  |  |  |  |  |  | 0.2087 ± 0.1 | 845.839 ± 0.23 | 5.45 ± 0.02 | 0.3149 ± 0.1 | 837.399 ± 0.23 | 8.47 ± 0.03 | 0.4587 ± 0.1 | 828.528 ± 0.24 | 12.71 ± 0.03
